# Assay results: the OPERA property sets (Mansouri et al. 2018)
# Where a SMILES comes first, the peptide text is derived from it. The star is where a group is joined. X1 = O=C(CCCCSc1[nH]cnc2ncnc1-2)*
row,SMILES,logP
1,O=[N+]([O-])C=C1NCCN1Cc1cnc(Cl)s1,-0.04
2,Clc1cc2c(c(Cl)c1Cl)Oc1c(Cl)cccc1O2,6.39
3,CNC(=O)C1(O)C(C)CC2C3CCC4=CC(=O)C=CC4(C)C3(F)C(O)CC21C (centres undefined),1.54
4,Cc1c([N+](=O)[O-])ncn1C,-0.11
5,CCN(CC)N=Nc1ccccc1C(N)=O,2.96
6,CC(=O)OCC(O)Cn1ccnc1[N+](=O)[O-] (centres undefined),-0.37
7,CCCCCC(=O)OCCOCn1cnc2c(=O)[nH]c(N)nc21,0.93
8,C#CC1(OC(=O)C2=CN(C)C=CC2)CCC2C3CCC4=CC(=O)CCC4C3CCC21C (centres undefined),4.44
9,Cc1ncnc2c1ncn2C1CCC(CO)O1 (centres undefined),-0.12
10,Fc1ccc(SCc2ccc(CCCN3CCOCC3)cc2)cc1,3.51
11,Cc1ccc(C(=O)COc2c(C(=O)c3ccc(Cl)c(C)c3Cl)c(C)nn2C)cc1,4.69
12,COCC(O)Cn1c(C)cnc1[N+](=O)[O-] (centres undefined),0.03
13,CCOC(=O)CNC(=O)CNC(=O)CNC(=O)CNC(=O)CCCCSc1[nH]cnc2ncnc1-2 (X1-GGGG-OEt),-0.23
14,N#CCc1ccc(O)c2ncccc12,1.81
15,Cc1cccc(C)c1NC(=O)c1ccc(CN2CCOCC2)cc1,2
16,O=C(NCO)c1c(I)c(C(=O)NCCO)c(I)c(N(CC(O)CO)C(=O)C(O)CO)c1I (centres undefined),-2.65
17,O=[N+]([O-])C=C1SCCN1Cc1ccc(Cl)nc1,0.65
18,CCN1C(=O)C(=O)c2cc(OC)c(OC)cc2C1=O,1.31
19,CCC(C)C(NC(C)=O)C(=O)NC(CC(C)C)C(=O)NC(CC(=O)O)C(N)=O (stereo not drawn) (Ac-Ile-Leu-Asp-NH2; configuration not given here),-0.04
20,CC1CC2C3CCC4=CC(=O)C=CC4(C)C3(F)C(O)CC2(C)C1(O)C(N)=O (centres undefined),1.41

row,SMILES,logP
1,O=[N+]([O-])C=C1NCCCN1Cc1ccc(Cl)nc1,-0.62
2,Clc1ccc(Cl)c(-c2cccc(Cl)c2Cl)c1,5.81
3,O=C(O)C[N+]1([O-])CCN(C(=O)Cn2c(=O)sc3ccc(Cl)cc32)CC1,0.21
4,Oc1c(I)cc(I)cc1I,4.5
5,CC1(CO)COC(Cn2cncn2)(c2ccc(Cl)cc2Cl)OC1 (centres undefined),2.1
6,CCOc1ccc(NC(=O)OCCN2CCOCC2)cc1,2.18
7,CCCCCOC(=O)C(C(=O)OCCCCC)=C1SCCS1,5.6
8,C#CC1(OC(=O)C2=CN(C)C=CC2)CCC2C3CCC4=CC(=O)CCC4(C)C3CCC21C (centres undefined),4.49
9,CCC1CC(C(=O)NC(C(C)O)C2OC(SC)C(O)C(O)C2O)N(C)C1 (centres undefined),-0.4
10,CC(C)CCNC(=O)C1(O)C(C)CC2C3CCC4=CC(=O)C=CC4(C)C3(F)C(O)CC21C (centres undefined),3.74
11,CC1(C)CCC(C)(C)N1[O],1
12,CCCCOC(=O)NCCn1c([N+](=O)[O-])cnc1C,1.22
13,COc1cccc(N2CCN(CCN(C)C)C2=O)c1,1.76
14,Clc1ccc(-c2cc(Cl)c(Cl)cc2Cl)c(Cl)c1,7.21
15,CCN1C(=O)C(=O)c2c(OC)cc(OC)cc2C1=O,1.23
16,Cn1c([N+](=O)[O-])cnc1C(N)=O,0.29
17,CSC1=NCCN1c1ccc([N+](=O)[O-])o1,1.19
18,CC(C1CC1)C(O)(Cn1cncn1)c1ccc(Cl)cc1 (centres undefined),2.9
19,Cc1cc(O)cc(Br)c1O,1.38

# Further lines, results first:
row,logP,SMILES
1,5.78,Fc1ccc(C(c2ccc(F)cc2)N2CCN(C/C=C/c3ccccc3)CC2)cc1
2,5.6,Cc1cccc(C)c1NC(=O)CN1CCN(CCCC(c2ccc(F)cc2)c2ccc(F)cc2)CC1
3,2.38,Cc1ccccc1NN=C(C#N)C#N
4,2.89,CC1CC2C3CCC4=CC(=O)C=CC4(C)C3(F)C(O)CC2(C)C1(O)C(=O)NC(CO)c1ccccc1 (centres undefined)
5,1.8,CC(=O)c1ccc(O)c2ncccc12
6,3.66,CC1CC2C3CCC4=CC(=O)C=CC4(C)C3(F)C(O)CC2(C)C1(O)C(=O)NCCc1ccccc1 (centres undefined)
7,0.39,CC(=O)NC(Cc1ccccc1)C(=O)NC(CC(=O)O)C(=O)NC(CC(C)C)C(N)=O (stereo not drawn) (Ac-Phe-Asp-Leu-NH2; configuration not given here)
8,2.91,O=S(=O)(NCc1ccccc1)C(F)(F)F
9,1.36,c1ccc(Cn2cnnn2)cc1
10,4.37,CCOC(=O)C(C)Oc1ccc(Oc2cnc3cc(C(F)(F)F)ccc3n2)cc1 (centres undefined)
11,3.99,CCC(C)NC(=O)C(=Cc1ccccc1)Cc1ccccc1 (centres undefined)
12,-0.22,NC(Cc1cccc2ccccc12)C(=O)O (centres undefined)
13,2.4,COC(=O)c1ccccc1CS(=O)(=O)Nc1nc(OC)cc(OC)n1
14,1.82,CCC(=O)C(CS(=O)(=O)c1ccccc1)c1ccccc1 (centres undefined)
15,3.65,CCOC(=O)COC(=O)c1cc(Oc2ccc(C(F)(F)F)cc2Cl)ccc1[N+](=O)[O-]
16,-1.3,O=C(O)CCCCCNCCc1ccccc1
17,2.26,CCOC(=O)Cc1ccc(O)c2ncccc12
18,1.13,CCOC(=O)C(NC(=O)CCCCSc1[nH]cnc2ncnc1-2)c1ccccc1 (centres undefined)
19,4.05,CCC(C)NC(=O)C(=Cc1ccccc1)c1ccccc1 (centres undefined)
20,2.86,CCCOc1ccc2ccc(=O)oc2c1
